Read-outs that look alike come from different tables or passages of the source. Where a SMILES comes first, the peptide text is derived from it. [ ]: non-standard residue; d: D form. The star is where a group is joined. Dolaproine = CO[C@@H]([C@@H]1CCCN1)[C@@H](C)C(=O)O; Dil = CC[C@H](C)[C@H](NC)[C@@H](CC(=O)O)OC; X1 = C[C@@H](N*)[C@@H](O)c1ccccc1; NMeV = CN[C@H](C(=O)O)C(C)C
Assays:
Type in all cases: cell-based
[1] = system: KYSE-520 (an esophageal cancer cell line); assay: In-vitro cell viability assay (CellTiter-Glo); settings: Homo sapiens
[2] = system: T47D (a breast cancer cell line); assay: cells; settings: Homo sapiens, 144 h
[3] = system: Caski (a cervical cancer cell line); assay: In-vitro cell viability assay (CellTiter-Glo); settings: Homo sapiens, Ca-Ski, 144 h
[4] = system: HPAF-II (a pancreatic cancer cell line); assay: In-vitro cell viability assay (CellTiter-Glo); settings: Homo sapiens, 144 h
[5] = system: MCF-7 (a breast cancer cell line); assay: In-vitro cell viability assay (CellTiter-Glo); settings: MCF7a, 144 h
[6] = system: A431 (a skin cancer cell line); assay: In-vitro cell viability assay (CellTiter-Glo); settings: Homo sapiens, A-431, 144 h
[7] = 6 days incubation, read-out: IC50

| Compound | IC50 ([1]; KYSE-520, 144 h) [pM] | IC50 [2] [pM] | IC50 [3] [pM] | IC50 [4] [pM] | IC50 [5] [pM] | IC50 [6] [pM] | IC50 ([1]; 144 h, KYSE-520, 6 days incubation, read-out: IC50) [pM] | IC50 [2, 7] [pM] | IC50 ([3]; Caski, 6 days incubation, read-out: IC50) [pM] | IC50 [4, 7] [pM] | IC50 ([5]; MCF-7, 6 days incubation, read-out: IC50) [pM] | IC50 ([6]; A431, 6 days incubation, read-out: IC50) [pM] |
| --- | --- | --- | --- | --- | --- | --- | --- | --- | --- | --- | --- | --- |
| CC[C@@]1(O)C(=O)OCc2c1cc1n(c2=O)Cc2c-1nc1cc3c(c4c1c2[C@@H](NC(=O)[C@@H](C)O)CC4)OCO3 [PBX-7016] | 2060 | 460 | 750 | 2870 | 6020 | 1940 | – | – | – | – | – | – |
| CC[C@H](C)[C@@H]([C@@H](CC(=O)N1CCC[C@H]1[C@H](OC)[C@@H](C)C(=O)N[C@H](C)[C@@H](O)c1ccccc1)OC)N(C)C(=O)[C@@H](NC(=O)[C@@H](NC)C(C)C)C(C)C [MMAE, monomethyl auristatin E] (H-[NMeV]V[Dil][Dolaproine]-X1) | – | – | – | – | – | – | 120 | 160 | 34 | 45 | 820 | 32 |
